Measured values from patent publication US20230398130A1, “METHODS AND COMPOSITIONS FOR DIFFERENTIATING STEM CELLS” (Massachusetts Institute of Technology, priority 2020, published 2023).

How the values were obtained:
ISC-enriched organoids [1] = test: Primary screen, 384-well 2.5-D organoid differentiation (ENR+CD, 6 days): carbachol-induced lysozyme secretion (LYZ.S); type: cell-based, murine; details: primary screen; for Dose.FC.LYZ.S: FC vs plate median; for Z.LYZ.S: standard z score
From the text: (§1) High-throughput screening.

ISC-enriched organoids [2] = test: Primary screen, 384-well 2.5-D organoid differentiation (ENR+CD, 6 days, Target Selective Inhibitor Library, vs whole-plate median): ATP (CellTiter-Glo 3D, CTG); details: for Dose.FC.CTG: FC vs plate median; for SSMD.CTG: strictly standardized mean difference
ISC-enriched organoids [3] = test: Primary screen, 384-well 2.5-D organoid differentiation (ENR+CD, 6 days): basal lysozyme secretion (LYZ.NS); type: cell-based, murine; details: for SSMD.LYZ.NS / Dose.FC.LYZ.NS / Z.LYZ.NS: primary screen; for Dose.FC.LYZ.NS: FC vs plate median; for Z.LYZ.NS: standard z score
From the text: as §1

[4] = primary screen, dose 0.08 uM, ENR+CD 6 days
[5] = primary screen, dose 0.08 uM, standard z score of FC
[6] = primary screen, dose 0.40 uM, ENR+CD 6 days
[7] = primary screen, dose 0.40 uM, standard z score of FC
[8] = primary screen, dose 2.00 uM, ENR+CD 6 days
[9] = primary screen, dose 2.00 uM, standard z score of FC
[10] = primary screen, dose 10.00 uM, ENR+CD 6 days
[11] = primary screen, dose 10.00 uM, standard z score of FC
[12] = strictly standardized mean difference of replicates, four lines per treatment = four doses (dose not given), column head inferred
[13] = strictly standardized mean difference, 1st of the 4 dose lines of the treatment (dose not given)
[14] = strictly standardized mean difference, 2nd of the 4 dose lines of the treatment (dose not given)
[15] = strictly standardized mean difference, 3rd of the 4 dose lines of the treatment (dose not given)
[16] = strictly standardized mean difference, 4th of the 4 dose lines of the treatment (dose not given)
[17] = Dose 0.08 uM, primary screen, standard z score
[18] = Dose 0.40 uM, primary screen, standard z score
[19] = Dose 2.00 uM, primary screen, standard z score
[20] = Dose 10.00 uM, primary screen, standard z score
[21] = primary screen, 1st of the 4 dose lines of the treatment (dose not given)
[22] = primary screen, 2nd of the 4 dose lines of the treatment (dose not given)
[23] = primary screen, 3rd of the 4 dose lines of the treatment (dose not given)
[24] = primary screen, 4th of the 4 dose lines of the treatment (dose not given)

Row | Compound | Z.CTG (ISC-enriched organoids [2]; [5]) | Z.CTG (ISC-enriched organoids [2]; [7]) | Z.CTG (ISC-enriched organoids [2]; [9]) | Z.CTG (ISC-enriched organoids [2]; [11]) | SSMD.LYZ.NS (ISC-enriched organoids [3]; [13]) | SSMD.LYZ.NS (ISC-enriched organoids [3]; [14]) | SSMD.LYZ.NS (ISC-enriched organoids [3]; [15]) | SSMD.LYZ.NS (ISC-enriched organoids [3]; [16]) | Dose.FC.CTG (ISC-enriched organoids [2]; Dose 0.08 uM, primary screen) [log 2 fold change] | Z.CTG (ISC-enriched organoids [2]; [17]) | Dose.FC.CTG (ISC-enriched organoids [2]; Dose 0.40 uM, primary screen) [log 2 fold change] | Z.CTG (ISC-enriched organoids [2]; [18]) | Dose.FC.CTG (ISC-enriched organoids [2]; Dose 2.00 uM, primary screen) [log 2 fold change] | Z.CTG (ISC-enriched organoids [2]; [19]) | Dose.FC.CTG (ISC-enriched organoids [2]; Dose 10.00 uM, primary screen) [log 2 fold change] | Z.CTG (ISC-enriched organoids [2]; [20]) | SSMD.CTG (ISC-enriched organoids [2]; [21]) | SSMD.CTG (ISC-enriched organoids [2]; [22]) | SSMD.CTG (ISC-enriched organoids [2]; [23]) | SSMD.CTG (ISC-enriched organoids [2]; [24]) | also measured
1 | COc1cc(CCc2cc(NC(=O)c3ccc(N4CC(C)NC(C)C4)cc3)n[nH]2)cc(OC)c1 (stereo not drawn) [AZD4547] | 0.382 | 0.241 | −0.024 | −0.147 |  |  |  |  |  |  |  |  |  |  |  |  |  |  |  |  | Dose.FC.LYZ.S (ISC-enriched organoids [1]; dose 0.08 uM, ENR+CD 6 days): 0.157 log 2 fold change; Dose.FC.LYZ.S (ISC-enriched organoids [1]; dose 0.40 uM, ENR+CD 6 days): 0.083 log 2 fold change; Dose.FC.LYZ.S (ISC-enriched organoids [1]; dose 2.00 uM, ENR+CD 6 days): 0.074 log 2 fold change; Dose.FC.LYZ.S (ISC-enriched organoids [1]; dose 10.00 uM, ENR+CD 6 days): −0.049 log 2 fold change; Dose.FC.CTG (ISC-enriched organoids [2]; [4]): 0.160 log 2 fold change; Dose.FC.CTG (ISC-enriched organoids [2]; [6]): 0.101 log 2 fold change; Dose.FC.CTG (ISC-enriched organoids [2]; [8]): −0.010 log 2 fold change; Dose.FC.CTG (ISC-enriched organoids [2]; [10]): −0.062 log 2 fold change
2 | CC(C)(C#N)c1cc(Cn2cncn2)cc(C(C)(C)C#N)c1 [Anastrozole] | −0.279 | 0.057 | −0.139 | −1.191 |  |  |  |  |  |  |  |  |  |  |  |  |  |  |  |  | SSMD.LYZ.S (ISC-enriched organoids [1]; [12]): 0.304
3 | CC(C)C[C@H](NC(=O)[C@H](Cc1ccccc1)NC(=O)c1cnccn1)B(O)O [Bortezomib (PS-341)] | −4.547 | −5.127 | −2.185 | −3.246 |  |  |  |  |  |  |  |  |  |  |  |  |  |  |  |  | Dose.FC.LYZ.S (ISC-enriched organoids [1]; dose 0.08 uM, ENR+CD 6 days): −0.239 log 2 fold change; Dose.FC.LYZ.S (ISC-enriched organoids [1]; dose 0.40 uM, ENR+CD 6 days): −0.173 log 2 fold change; Dose.FC.LYZ.S (ISC-enriched organoids [1]; dose 2.00 uM, ENR+CD 6 days): −0.249 log 2 fold change; Dose.FC.LYZ.S (ISC-enriched organoids [1]; dose 10.00 uM, ENR+CD 6 days): −0.238 log 2 fold change; Dose.FC.CTG (ISC-enriched organoids [2]; [4]): −1.904 log 2 fold change; Dose.FC.CTG (ISC-enriched organoids [2]; [6]): −2.146 log 2 fold change; Dose.FC.CTG (ISC-enriched organoids [2]; [8]): −0.915 log 2 fold change; Dose.FC.CTG (ISC-enriched organoids [2]; [10]): −1.359 log 2 fold change
4 | CCOc1nc2cccc(C(=O)O)c2n1Cc1ccc(-c2ccccc2-c2nnn[nH]2)cc1 [Candesartan] |  |  |  |  |  |  |  |  |  |  |  |  |  |  |  |  |  |  |  |  | SSMD.LYZ.NS (ISC-enriched organoids [3]; [12]): −0.474; Z.CTG (ISC-enriched organoids [2]; Dose 0.40 uM, standard z score of FC): −0.299; Z.CTG (ISC-enriched organoids [2]; Dose 2.00 uM, standard z score of FC): −0.473; Z.CTG (ISC-enriched organoids [2]; Dose 10.00 uM, standard z score of FC): −0.604
5 | C=CC(=O)N1CCC[C@@H](n2nc(-c3ccc(Oc4ccccc4)cc3)c3c(N)ncnc32)C1 [Ibrutinib (PCI-32765)] |  |  |  |  | −0.704 | −1.031 | −1.175 | −1.325 | −0.027 | −0.065 | −0.466 | −1.112 | −0.521 | −1.244 | −0.931 | −2.224 | −0.062 | −0.574 | −1.005 | −0.875 | Dose.FC.LYZ.NS (ISC-enriched organoids [3]; Dose 0.08 uM): −0.071 log 2 fold change; Z.LYZ.NS (ISC-enriched organoids [3]; Dose 0.08 uM): −0.619; Dose.FC.LYZ.NS (ISC-enriched organoids [3]; Dose 0.40 uM): −0.141 log 2 fold change; Z.LYZ.NS (ISC-enriched organoids [3]; Dose 0.40 uM): −1.225; Dose.FC.LYZ.NS (ISC-enriched organoids [3]; Dose 2.00 uM): −0.202 log 2 fold change; Z.LYZ.NS (ISC-enriched organoids [3]; Dose 2.00 uM): −1.763; Dose.FC.LYZ.NS (ISC-enriched organoids [3]; Dose 10.00 uM): −0.199 log 2 fold change; Z.LYZ.NS (ISC-enriched organoids [3]; Dose 10.00 uM): −1.737
6 | Cc1ccc(NC(=O)c2ccc(CN3CCN(C)CC3)cc2)cc1Nc1nccc(-c2cccnc2)n1 [Imatinib (STI571)] |  |  |  |  | 0.326 | 0.108 | 0.152 | −0.330 | −0.150 | −0.357 | 0.079 | 0.188 | 0.056 | 0.135 | −0.034 | −0.082 | −0.258 | 0.254 | 0.194 | −0.097 | Dose.FC.LYZ.NS (ISC-enriched organoids [3]; Dose 0.08 uM): 0.033 log 2 fold change; Z.LYZ.NS (ISC-enriched organoids [3]; Dose 0.08 uM): 0.284; Dose.FC.LYZ.NS (ISC-enriched organoids [3]; Dose 0.40 uM): 0.012 log 2 fold change; Z.LYZ.NS (ISC-enriched organoids [3]; Dose 0.40 uM): 0.104; Dose.FC.LYZ.NS (ISC-enriched organoids [3]; Dose 2.00 uM): 0.025 log 2 fold change; Z.LYZ.NS (ISC-enriched organoids [3]; Dose 2.00 uM): 0.217; Dose.FC.LYZ.NS (ISC-enriched organoids [3]; Dose 10.00 uM): −0.038 log 2 fold change; Z.LYZ.NS (ISC-enriched organoids [3]; Dose 10.00 uM): −0.333
7 | CC1=C(/C=C/C(C)=C/C=C/C(C)=C\C(=O)O)C(C)(C)CCC1 [Isotretinoin] |  |  |  |  | 0.753 | 0.312 | 0.410 | 0.680 |  | 0.982 |  | 0.965 |  | 0.604 |  | 0.331 | 1.156 | 0.966 | 0.779 | 0.304 | 
8 | O=c1cc(-c2cccc3c2Sc2ccccc2S3)oc(N2CCOCC2)c1 [KU-55933 (ATM Kinase Inhibitor)] |  |  |  |  |  |  |  |  | 0.524 | 1.251 | 0.477 | 1.140 | 0.551 | 1.317 | 0.541 | 1.293 | 1.626 | 1.743 | 1.554 | 1.744 | Dose.FC.LYZ.S (ISC-enriched organoids [1]; Dose 0.08 uM): 0.168 log 2 fold change; Dose.FC.LYZ.S (ISC-enriched organoids [1]; Dose 0.40 uM): 0.200 log 2 fold change; Dose.FC.LYZ.S (ISC-enriched organoids [1]; Dose 2.00 uM): 0.161 log 2 fold change; Dose.FC.LYZ.S (ISC-enriched organoids [1]; Dose 10.00 uM): 0.076 log 2 fold change; Z.LYZ.S (ISC-enriched organoids [1]; 1st of the 4 dose lines of the treatment (dose not given)): 1.088; Z.LYZ.S (ISC-enriched organoids [1]; 2nd of the 4 dose lines of the treatment (dose not given)): 1.291; Z.LYZ.S (ISC-enriched organoids [1]; 3rd of the 4 dose lines of the treatment (dose not given)): 1.043; Z.LYZ.S (ISC-enriched organoids [1]; 4th of the 4 dose lines of the treatment (dose not given)): 0.494; SSMD.LYZ.S (ISC-enriched organoids [1]; [13]): 1.113; SSMD.LYZ.S (ISC-enriched organoids [1]; [14]): 0.994; SSMD.LYZ.S (ISC-enriched organoids [1]; [15]): 1.246; SSMD.LYZ.S (ISC-enriched organoids [1]; [16]): 0.400
9 | NC(=O)c1cccc(-c2cccc(OC(=O)NC3CCCCC3)c2)c1 [URB597] |  |  |  |  |  |  |  |  |  |  |  |  |  |  |  |  |  |  |  |  | Z.LYZ.NS (standard z score) (ISC-enriched organoids [3]; dose 0.08 uM): 0.754; Z.LYZ.NS (standard z score) (ISC-enriched organoids [3]; dose 0.40 uM): −0.007; Z.LYZ.NS (standard z score) (ISC-enriched organoids [3]; dose 2.00 uM): 0.307; Z.LYZ.NS (standard z score) (ISC-enriched organoids [3]; dose 10.00 uM): −0.123; Z.CTG (standard z score) (ISC-enriched organoids [2]; dose 0.08 uM): 0.750; Z.CTG (standard z score) (ISC-enriched organoids [2]; dose 0.40 uM): 0.154; Z.CTG (standard z score) (ISC-enriched organoids [2]; dose 2.00 uM): 0.328; Z.CTG (standard z score) (ISC-enriched organoids [2]; dose 10.00 uM): −0.051
10 | VU 0357121 |  |  |  |  |  |  |  |  |  |  |  |  |  |  |  |  |  |  |  |  | Z.LYZ.NS (standard z score) (ISC-enriched organoids [3]; dose 0.08 uM): 0.686; Z.LYZ.NS (standard z score) (ISC-enriched organoids [3]; dose 0.40 uM): −0.090; Z.LYZ.NS (standard z score) (ISC-enriched organoids [3]; dose 2.00 uM): 0.261; Z.CTG (standard z score) (ISC-enriched organoids [2]; dose 0.08 uM): 0.438; Z.CTG (standard z score) (ISC-enriched organoids [2]; dose 0.40 uM): 0.352; Z.CTG (standard z score) (ISC-enriched organoids [2]; dose 2.00 uM): 0.029; Z.CTG (standard z score) (ISC-enriched organoids [2]; dose 10.00 uM): −0.141
